The record followed here is US7977325B2, “3-amino-pyrazolo[3,4b]pyridines as inhibitors of protein tyrosine kinases, their production and use as pharmaceutical agents” (Bayer Schering Pharma AG, priority 2004, dated 2011).

Structures are written as SMILES. Read-outs that look alike come from different tables or passages of the source.

In the assay the target is T1, recombinant EphB4 kinase (Homo sapiens, UniProt P54760).
T1 construct: purchased ProQinase GmbH, Freiburg, Germany
T1 sequence (P54760 16-987): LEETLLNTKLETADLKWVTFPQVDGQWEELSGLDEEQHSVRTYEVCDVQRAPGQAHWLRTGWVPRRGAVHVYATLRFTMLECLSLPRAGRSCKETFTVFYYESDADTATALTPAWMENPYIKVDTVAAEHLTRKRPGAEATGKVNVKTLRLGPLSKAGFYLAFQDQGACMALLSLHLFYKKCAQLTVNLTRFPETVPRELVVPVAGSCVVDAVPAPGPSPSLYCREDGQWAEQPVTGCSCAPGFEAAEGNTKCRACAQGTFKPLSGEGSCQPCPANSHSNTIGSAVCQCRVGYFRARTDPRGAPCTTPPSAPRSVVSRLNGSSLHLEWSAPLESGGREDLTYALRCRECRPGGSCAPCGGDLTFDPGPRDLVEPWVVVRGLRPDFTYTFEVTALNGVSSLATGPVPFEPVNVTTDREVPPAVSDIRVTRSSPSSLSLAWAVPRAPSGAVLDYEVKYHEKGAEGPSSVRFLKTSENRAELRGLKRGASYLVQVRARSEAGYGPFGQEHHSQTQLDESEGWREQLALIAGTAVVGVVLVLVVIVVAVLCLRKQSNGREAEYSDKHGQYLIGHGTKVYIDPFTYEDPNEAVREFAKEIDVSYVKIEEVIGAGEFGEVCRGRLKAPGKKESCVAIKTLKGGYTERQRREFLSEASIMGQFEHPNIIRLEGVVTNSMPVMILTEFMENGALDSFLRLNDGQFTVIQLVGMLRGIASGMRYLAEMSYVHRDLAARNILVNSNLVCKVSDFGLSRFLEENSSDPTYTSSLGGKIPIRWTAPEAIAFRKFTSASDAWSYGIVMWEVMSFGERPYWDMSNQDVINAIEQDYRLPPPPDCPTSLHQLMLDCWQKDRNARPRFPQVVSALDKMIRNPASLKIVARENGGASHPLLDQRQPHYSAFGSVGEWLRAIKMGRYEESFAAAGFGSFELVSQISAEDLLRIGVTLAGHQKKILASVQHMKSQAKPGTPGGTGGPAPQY
In words: Test System for EphB4 (HTRF kinase assay). Format: biochemical. The conditions noted are these: polyGluAlaTyr substrate, 2 μmol of ATP. How it is done:
A mixture that consists of 20 ng/ml of recombinant EphB4 kinase (related to ProQinase GmbH, Freiburg, Germany), 2.67 μg/ml of polyGluAlaTyr, 2 μmol of ATP, 25 mmol of HEPES (pH 7.3), 5 mmol of MgCl2, 1 mmol of MnCl2, 2 mmol of DTT, 0.1 mmol of NaVO4, 1% (v/v) glycerol, 0.02% NP40, EDTA-free protease inhibitors (Complete Fa. [Company] Roche, 1 tablet in 50 ml) is incubated at 20° C. for 10 minutes. Test substances are dissolved in 100% DMSO and introduced in 0.017× volume before the beginning of the reaction. 60 minutes after the addition of 1.7× volume of a solution of 50 mmol of Hepes, pH 7.0, 0.2% BSA, 0.14 μg/ml of PT66-europium, 3.84 μg/ml of SA-XL665, and 75 mmol of EDTA, the batch is measured in a Discovery HTRF-measuring device of the PerkinElmer Company.

Setting [1] is: read-out: IC50 of EphB4 kinase inhibition (stated as upper bound).

For `Cc1ccc(-c2cc(C3CCC(N4CCNCC4)CC3)nc3[nH]nc(N)c23)cc1` (centres unmarked) [Example 14, 6-(4-piperazin-1-yl-cyclohexyl)-4-p-tolyl-1H-pyrazolo[3,4b]pyridin-3-ylamine], the IC50 under setting [1] is below 10 µM.

Turning to `Nc1n[nH]c2nc(C3CC3)cc(-c3ccc(Cl)c(Cl)c3)c12` [Example 51, 6-Cyclopropyl-4-(3,4-dichlorophenyl)-1H-pyrazolo[3,4-b]pyridin-3-ylamine], the IC50 under setting [1] was below 10 µM.

In the case of `Cc1ccc(-c2cc(C3CCC(N4CCCCC4)CC3)nc3[nH]nc(N)c23)cc1` (centres unmarked) [Example 16, 6-(4-Piperidin-1-yl-cyclohexyl)-4-p-tolyl-1H-pyrazolo[3,4b]pyridin-3-ylamine], the IC50 under setting [1] is below 10 µM.

For `Cc1ccc(-c2cc(C3CCC(=O)CC3)nc3[nH]nc(N)c23)cc1` [Example 12, 4-(3-Amino-4-p-tolyl-1H-pyrazolo[3,4b]pyridin-6-yl)-cyclohexanone], the IC50 under setting [1] is below 10 µM.

In the case of `CC(C)(C)c1cc(-c2cc(O)ccc2[N+](=O)[O-])c2c(N)n[nH]c2n1` [Example 41, 3-(3-Amino-6-tert-butyl-1H-pyrazolo[3,4b]pyridin-4-yl)-4-nitro-phenol], under setting [1], the IC50 was below 10 µM.

As for `Cc1ccc(O)cc1-c1cc(-c2ccncc2)nc2[nH]nc(N)c12` [Example 35, 3-(3-Amino-6-pyridin-4-yl-1H-pyrazolo[3,4-b]pyridin-4-yl)-4-methyl-phenol], the IC50 under setting [1] was below 10 µM.

Turning to `COc1cc(OC)cc(-c2cc(C(C)(C)C)nc3[nH]nc(N)c23)c1` [Example 39, 6-tert-Butyl-4-(3,5-dimethoxyphenyl)-1H-pyrazolo[3,4-b]pyridin-3-ylamine], under setting [1], the IC50 was below 10 µM.

Regarding `CC(C)Oc1cc(O)cc(-c2cc(C(C)(C)C)nc3[nH]nc(N)c23)c1` [Example 40], the IC50 under setting [1] is below 10 µM.

With `COc1cccc(-c2cc(C(C)(C)C)nc3[nH]nc(N)c23)c1` [Example 6, 6-tert-Butyl-4-(3-methoxyphenyl)-1H-pyrazolo[3,4b]pyridin-3-ylamine], the IC50 reads like this: (read-out: IC50 of EphB4 kinase inhibition) 6.1 µM; under setting [1], below 10 µM.

On to `COc1cc(O)cc(-c2cc(-c3ccncc3)nc3[nH]nc(N)c23)c1` [Example 33, 3-(3-Amino-6-pyridin-4-yl-1H-pyrazolo[3,4-b]pyridin-4-yl)-5-methoxyphenol], for which the IC50 under setting [1] was below 10 µM.
